Values of other authors as cited in publication PMC4324444 (ACS Chemical Biology, 2014).

Target: XIAP
Conditions: read-out: binding affinity to XIAP (Ki)

Ki: > 30 µM
Structure (SMILES): CN[C@@H](C)C(=O)N[C@H](C(=O)N1CC[C@H](C)[C@H]1C(=O)Nc1ccccc1-c1ncccn1)C1CCCCC1 [CS3]
